For experiment [1], the system named is ADGRG2. In words: cAMP accumulation assay (GloSensor) with wild-type ADGRG2 and mutants. Format: cell-based. As to conditions: HEK293, GloSensor; agonist IP15 alone, then with antagonist; mean ± SEM, n = 3. As for the experimental part: To assess the cAMP accumulation induced by receptor activation, HEK293 cells were transfected with plasmids for wild-type ADGRG2 or its mutants (ADGRG2-T624A, ADGRG2-C628A, ADGRG2-N668A, ADGRG2-Y758A, ADGRG2-K760A, ADGRG2-D768A, ADGRG2-N773A, ADGRG2-N775A, ADGRG2-N849A, ADGRG2-N860A) alongside the GloSensor plasmid or an empty vector (pcDNA3.1). Following a 24-h incubation at 37 °C with 5% CO2, the transfected cells were plated at a density of 4 × 10^4 per well in 96-well plates and incubated for an additional 24 h. The cells were then pre-treated with serum-free medium containing 5% (v/v) GloSensor cAMP reagent stock solution for 2 h. cAMP signals induced by IP15 were measured immediately after adding the agonists. Luminescence was recorded for at least 20 min per well, and the data were analyzed using sigmoidal dose–response functions in GraphPad Prism v.9.0.

Experiment [2] deals with ADGRG2. As to conditions: Stachel-derived peptides, earlier work; ref [8],[11]; cited from earlier work. The source says: Stachel (sequence: TSFGILLDLSRTSLP, with individual residues numbered from ss01 to ss15, where “ss” denotes Stachel sequence) is a key functional element of ADGRG2, playing a critical role in regulating the conformation and function of the receptor [8]. The Stachel sequence plays a pivotal role in receptor activation by mediating ligand binding and initiating the conformational changes required for signal transduction, highlighting its biological significance. In previous studies, the wild-type ADGRG2 Stachel sequence-derived peptidic agonist, VPM, was found t ... || Figure 1 Structural and binding analysis of ADGRG2 with agonists and antagonists. (A) Structure of ADGRG2, highlighting key domains involved in ligand binding. Identified agonists (DHEA, DHEAS, IP15) and antagonists (DOC, F601D, F601E) are labeled. […] (B) Schematic representation of metadynamics simulations and ligand binding assay conducted to investigate the binding mechanisms of antagonists F601D, F601E, and DOC to ADGRG2. (C) Structural representation of ADGRG2 in complex wi ...

With IS 4PH GILLDLSRTSLP [IP15], the “IP15-induced cAMP accumulation, effect of ADGRG2 mutations” value in the experiment with ADGRG2 [1] is “the effects of these mutations are specific to the antagonists and not due to disruption of interactions between receptor residues that contribute to agonist-induced activation”. The “agonistic activity / receptor state stabilised” value with ADGRG2 [2] is “superior agonistic activity”.

These data come from publication PMC11719512, “Exploring the Binding Mechanism of ADGRG2 Through Metadynamics and Biochemical Analysis” (International Journal of Molecular Sciences, 2024).
